Results published in patent publication US4956294A, “Culture of Streptoverticillium synroense for producing an antibacterial” (Merck & Co., Inc., priority 1989, dated 1990).
Values after ≈ are worked out from the molar mass of the structure shown.

Key:
[1] = test system: Clostridium perfringens NCCLS control strain 4418; assay: microbe, parasite or virus in culture; assay type: cell-based; conditions: 48 h
Bacillus sp. 633 = assay: Inhibition zone, agar plate; assay type: cell-based; conditions: 15λ, read-out: Inhibition Zone Diameter
Protocol: (§1) A crystalline sample of L-654,040 was dissolved in distilled water. Aliquots of 15λ were deposited on the surface of each seeded nutrient agar susceptibility test plate, followed by overnight incubation Plates were then measured for activity by determining the inhibition zone diameter under the previously placed 15λ aliquot.

Candida albicans 992 = assay: Inhibition zone, agar plate; assay type: cell-based; conditions: 15λ, read-out: Inhibition Zone Diameter
Protocol: as §1

Prot. vulgaris 2829 [2] = assay: Agar dilution, trypticase soy agar; conditions: Proteus vulgaris, 2829, 20 h
[3] = test system: Proteus vulgaris 838 (21100); assay: Inhibition zone, agar plate; assay type: cell-based; conditions: 15λ, read-out: Inhibition Zone Diameter
Prot. vulgaris 2829 [4] = assay: Agar dilution, antagonist-free medium; conditions: Proteus vulgaris, 2829, 20 h
Ps. aeruginosa 4279 = assay: Agar dilution, antagonist-free medium; conditions: Pseudomonas aeruginosa, 4279, 20 h
[5] = test system: B. distasonis Pen^r, Fox^r 3445; assay: Anaerobic agar dilution, Wilkens-Chalgren agar; assay type: cell-based; conditions: Parabacteroides distasonis, 48 h
E. coli DC2 4353 = assay: Agar dilution, antagonist-free medium
K. pneumoniae K1+ 4354 = assay: Agar dilution, trypticase soy agar; conditions: Klebsiella pneumoniae, 20 h
E. coli TEM 2+ 4351 = assay: Agar dilution, trypticase soy agar; conditions: Escherichia coli, 20 h
[6] = test system: Salmonella gallinarum 1287; assay: Inhibition zone, agar plate; assay type: cell-based; conditions: Salmonella enterica, 15λ, read-out: Inhibition Zone Diameter
Ent. cloacae P99+ 2646 = assay: Agar dilution, trypticase soy agar; conditions: Enterobacter cloacae, 20 h
[7] = test system: Bifidobacterium dentium Fox^r 4427; assay: Anaerobic agar dilution, Wilkens-Chalgren agar; assay type: cell-based; conditions: 48 h
C. ramosum 4272 = assay: Anaerobic agar dilution, Wilkens-Chalgren agar; assay type: cell-based; conditions: Thomasclavelia ramosa, 4272, 48 h
K. pneumoniae 4005 = assay: Agar dilution, trypticase soy agar; conditions: Klebsiella pneumoniae, 4005, 20 h
C. perfringens 3512 = assay: microbe, parasite or virus in culture; assay type: cell-based; conditions: Clostridium perfringens, 3512, 48 h
[8] = test system: Brucella bronchiseptica 965; assay: microbe, parasite or virus in culture; assay type: cell-based; conditions: Bordetella bronchiseptica, 965, read-out: Inhibition Zone Diameter
[9] = test system: Prot. mirabilis Gm^r 2830; assay: Agar dilution, trypticase soy agar; conditions: Proteus mirabilis, 20 h
[10] = test system: Bacteroides fragilis Met^r . Pen^r 4324; assay: Anaerobic agar dilution, Wilkens-Chalgren agar; assay type: cell-based; conditions: 48 h
Proteus mirabilis 3126 = assay: Inhibition zone, agar plate; assay type: cell-based
Ser. marcescens 2840 = assay: Agar dilution, antagonist-free medium; conditions: Serratia marcescens, 2840, 20 h
[11] = test system: Pseudomonas aeruginosa 2824; assay: Inhibition zone, agar plate; assay type: cell-based; conditions: 15λ, read-out: Inhibition Zone Diameter
B. asaccharolyticus 4271 = assay: Anaerobic agar dilution, Wilkens-Chalgren agar; assay type: cell-based; conditions: Porphyromonas asaccharolytica, 4271, 48 h
[12] = test system: Propionibacterium acnes 2249; assay: Anaerobic agar dilution, Wilkens-Chalgren agar; assay type: cell-based; conditions: Cutibacterium acnes, 2249, 48 h
[13] = test system: Pseudomonas aeruginosa 979; assay: Inhibition zone, agar plate; assay type: cell-based; conditions: 15λ, read-out: Inhibition Zone Diameter
Sarcina lutea 1101 (934) = assay: Inhibition zone, agar plate; assay type: cell-based; conditions: Micrococcus luteus, 15λ, read-out: Inhibition Zone Diameter
E. coli TEM 2+ DC2 4352 = assay: Agar dilution, trypticase soy agar; conditions: Escherichia coli, 20 h
C. perfringens 3511 = assay: microbe, parasite or virus in culture; assay type: cell-based; conditions: Clostridium perfringens, 3511, 48 h
[14] = test system: C. difficile Clind^r 4273; assay: Anaerobic agar dilution, Wilkens-Chalgren agar; assay type: cell-based; conditions: Clostridioides difficile, 48 h
C. perfringens 2237 = assay: microbe, parasite or virus in culture; assay type: cell-based; conditions: Clostridium perfringens, 2237, 48 h
[15] = test system: Pseudomonas stutzeri 1231 (11607); assay: Inhibition zone, agar plate; assay type: cell-based; conditions: Stutzerimonas stutzeri, 15λ, read-out: Inhibition Zone Diameter
B. ovatus Pen^r 3248 = assay: Anaerobic agar dilution, Wilkens-Chalgren agar; assay type: cell-based; conditions: Bacteroides ovatus, 48 h
Prot. morganii Sm^r 2833 = assay: Agar dilution, trypticase soy agar; conditions: Morganella morganii, 20 h
Ent. cloacae P99- 2647 = assay: Agar dilution, trypticase soy agar; conditions: Enterobacter cloacae, P992647, 20 h
C. perfringens 3510 = assay: microbe, parasite or virus in culture; assay type: cell-based; conditions: Clostridium perfringens, 3510, 48 h

Work on C[C@H](CNC(=O)[C@H]1N=C(c2cccc(O)c2O)O[C@@H]1C)C(=O)N[C@@H]1CCCN(O)C1=O [L-654,040, 2-(2,3-dihydroxyphenyl)-4,5-dihydro-N-[3-[(1-hydroxy-2-oxo-3(R)-piperidinyl)-amino]-2(R)-methyl-3-oxopropyl]-5R-methyl-4S-oxazolecarboxamide] yielded an MIC [1] of 64 µg/mL (≈ 147 µM), a zone of inhibition at 500 µg/mL (Bacillus sp. 633; 0.5 mg/ml in distilled H2O) of 23 mm and a zone of inhibition at 2000 µg/mL (Bacillus sp. 633; 2 mg/ml in distilled H2O) of 28 mm. For the same compound, the zone of inhibition at 500 µg/mL (Candida albicans 992; 0.5 mg/ml in distilled H2O) was 16 mm, the zone of inhibition at 2000 µg/mL (Candida albicans 992; 2 mg/ml in distilled H2O) was 24 mm and the MIC (Prot. vulgaris 2829 [2]) was greater than 128 µg/mL. For the same compound, the zone of inhibition at 500 µg/mL ([3]; 0.5 mg/ml in distilled H2O) was 18 mm, the zone of inhibition at 2000 µg/mL ([3]; 2 mg/ml in distilled H2O) was 31 mm and the MIC (Prot. vulgaris 2829 [4]) was greater than 256 µg/mL. The MIC (Ps. aeruginosa 4279) was greater than 256 µg/mL, the MIC [5] was greater than 128 µg/mL and the “relative activity of parent and acetyl derivative” value (E. coli DC2 4353; E. coli permeability mutant) was “equal activity”. The sensitivity of strain (E. coli DC2 4353; E. coli permeability mutant) was “sensitive”, the MIC (E. coli DC2 4353; Escherichia coli, DC24353, 20 h) was 32 µg/mL (≈ 73.7 µM) and the MIC (K. pneumoniae K1+ 4354) was greater than 128 µg/mL. The MIC (E. coli TEM 2+ 4351) was greater than 128 µg/mL, the zone of inhibition at 500 µg/mL ([6]; 0.5 mg/ml in distilled H2O) was 0 mm and the zone of inhibition at 2000 µg/mL ([6]; 2 mg/ml in distilled H2O) was 0 mm. The MIC (Ent. cloacae P99+ 2646) was greater than 128 µg/mL, the MIC [7] was greater than 128 µg/mL and the MIC (C. ramosum 4272) was 64 µg/mL (≈ 147 µM). For the same compound, the MIC (K. pneumoniae 4005) was greater than 128 µg/mL, the MIC (C. perfringens 3512) was 64 µg/mL (≈ 147 µM) and the zone of inhibition at 500 µg/mL [8] was 16 mm. It also gave a zone of inhibition at 2000 µg/mL [8] of 24 mm, an MIC [9] greater than 128 µg/mL and an MIC [10] of 128 µg/mL (≈ 295 µM). It also gave a zone of inhibition at 500 µg/mL (Proteus mirabilis 3126; Proteus mirabilis, 3126, read-out: Inhibition Zone Diameter) of 24 mm, a zone of inhibition at 2000 µg/mL (Proteus mirabilis 3126; Proteus mirabilis, 3126, 2 mg/ml in distilled H2O, 15λ, read-out: Inhibition Zone Diameter) of 25 mm and an MIC (Ser. marcescens 2840) greater than 256 µg/mL. It also gave a zone of inhibition at 500 µg/mL ([11]; 0.5 mg/ml in distilled H2O) of 0 mm, a zone of inhibition at 2000 µg/mL ([11]; 2 mg/ml in distilled H2O) of 0 mm and an MIC (B. asaccharolyticus 4271) greater than 128 µg/mL. For the same compound, the MIC [12] was 128 µg/mL (≈ 295 µM), the zone of inhibition at 500 µg/mL ([13]; 0.5 mg/ml in distilled H2O) was 0 mm and the zone of inhibition at 2000 µg/mL ([13]; 2 mg/ml in distilled H2O) was 0 mm. For the same compound, the zone of inhibition at 500 µg/mL (Sarcina lutea 1101 (934); 0.5 mg/ml in distilled H2O) was 12 mm, the zone of inhibition at 2000 µg/mL (Sarcina lutea 1101 (934); 2 mg/ml in distilled H2O) was 17 mm and the MIC (E. coli TEM 2+ DC2 4352) was 128 µg/mL (≈ 295 µM). For the same compound, the MIC (C. perfringens 3511) was 64 µg/mL (≈ 147 µM), the MIC [14] was 128 µg/mL (≈ 295 µM) and the MIC (C. perfringens 2237) was 128 µg/mL (≈ 295 µM). The zone of inhibition at 500 µg/mL ([15]; 0.5 mg/ml in distilled H2O) was 12 mm, the zone of inhibition at 2000 µg/mL ([15]; 2 mg/ml in distilled H2O) was 13 mm and the MIC (B. ovatus Pen^r 3248) was greater than 128 µg/mL. It also gave an MIC (Prot. morganii Sm^r 2833) greater than 128 µg/mL, an MIC (Ent. cloacae P99- 2647) greater than 128 µg/mL and an MIC (C. perfringens 3510) of 128 µg/mL (≈ 295 µM).
